Source: patent US8999664B2, “Method of improving salmon meat color” (JX Nippon Oil & Energy Corporation, priority 2006, dated 2015)

Experiments:
Format in all cases: in vivo
[1] = test system: silver salmons (Oncorhynchus kisutch); experiment: Cultivation of silver salmon with carotenoid feed: fish weight and flesh color by spectrometer
From the text: The flesh color of a landed salmon can be quantified with the L*a*b* color system by measuring the color using a spectrometer. L* represents the luminance, a* represents the chroma red, and b* represents chroma yellow. A higher value of a*/b* represents a color more reddish than orangish, and a lower value of a*/b* represents a color more orangish than reddish. […] 300 silver salmons (Oncorhynchus kisutch) each weighing about 200 g were cultivated as a test division of being fed with the above-described fermented product, and another 300 silver salmons each weighing about 200 g were cultivated as a test division of being fed with the above-described synthetic product. The salmons were fed in satiation in a marine fish pen for 6 months. After the 6 months of cultivating, 10 fish of each test division were weighed. […] The fish were immediately killed by cutting medulla and frozen for preservation. After being thawed, the fish flesh was milled by a coffee mill, and a part thereof was put into a polyethylene bag to measure the color tone thereof by a spectrometer CM-508i (Minolta). […] From a part of the milled fish flesh, the carotenoid colorant was extracted, and analyzed in terms of the content of each carotenoid compound by HPLC.

[2] = test system: Atlantic salmons (Salmo salar); experiment: Cultivation of Atlantic salmon with carotenoid feed: fish weight and flesh color by spectrometer
From the text: The flesh color of a landed salmon can be quantified with the L*a*b* color system by measuring the color using a spectrometer. L* represents the luminance, a* represents the chroma red, and b* represents chroma yellow. A higher value of a*/b* represents a color more reddish than orangish, and a lower value of a*/b* represents a color more orangish than reddish. […] 400 Atlantic salmons (Salmo salar) each weighing about 300 g were cultivated as a test division of being fed with the above-described fermented product, and another 400 Atlantic salmons each weighing about 300 g were cultivated as a test division of being fed with the above-described synthetic product. The salmons were fed in satiation in a marine fish pen for 12 months. After the 12 months of cultivating, 20 fish of each test division were landed and weighed. […] The fish were immediately killed by cutting medulla, and the fish flesh was measured in terms of the color tone by a spectrometer. […] After the measurement, the fish flesh was frozen for preservation for 1 month. After being thawed, the fish flesh of the 20 fish of each test division was analyzed in terms of the content of each carotenoid compound.

[3] = test system: rainbow trouts (Oncorhynchus mykiss); experiment: Cultivation of rainbow trout with carotenoid feed: fish weight and flesh color by spectrometer
From the text: The flesh color of a landed salmon can be quantified with the L*a*b* color system by measuring the color using a spectrometer. L* represents the luminance, a* represents the chroma red, and b* represents chroma yellow. A higher value of a*/b* represents a color more reddish than orangish, and a lower value of a*/b* represents a color more orangish than reddish. […] 50 rainbow trouts (Oncorhynchus mykiss) each weighing about 100 g were cultivated in a water tank as a test division of being fed with the above-described fermented product, and another 50 rainbow trouts each weighing about 100 g were cultivated in a water tank as a test division of being fed with the above-described synthetic product. The trouts of each test division were fed in satiation in fresh water for 3 months. After the 3 months of cultivating, 12 fish of each test division were weighed. […] The fish were immediately killed by cutting medulla. […] After the measurement, the fish flesh was frozen for preservation. After being thawed, the fish flesh of the 12 fish of each test division was analyzed in terms of the content of each carotenoid compound.

[4] = test system: king salmons (Oncorhynchus tshawytscha); experiment: Cultivation of king salmon with carotenoid feed: fish weight and flesh color by spectrometer
From the text: The flesh color of a landed salmon can be quantified with the L*a*b* color system by measuring the color using a spectrometer. L* represents the luminance, a* represents the chroma red, and b* represents chroma yellow. A higher value of a*/b* represents a color more reddish than orangish, and a lower value of a*/b* represents a color more orangish than reddish. […] 100 king salmons (Oncorhynchus tshawytscha) each weighing about 200 g were cultivated as a test division of being fed with the above-described fermented product, and another 100 king salmons each weighing about 200 g were cultivated as a test division of being fed with the above-described synthetic product. The salmons were fed in satiation in a marine fish pen for 3 months. After the 3 months of cultivating, 15 fish of each test division were sampled and weighed. […] The fish were immediately killed by cutting medulla. […] After the measurement, the fish flesh was frozen for preservation for 1 month. After being thawed, the fish flesh of the fish of each test division was analyzed in terms of the content of each carotenoid compound.

[5] = milled thawed fish flesh, spectrometer CM-508i, 6 months, average of 10 fish
[6] = flesh color tone by spectrometer, 12 months, average of 20 fish
[7] = flesh color by spectrometer, 3 months, average of 12 fish
[8] = flesh color by spectrometer, 3 months, average of 15 fish

With CC1=C(/C=C/C(C)=C/C=C/C(C)=C/C=C/C=C(C)/C=C/C=C(C)/C=C/C2=C(C)C(=O)[C@@H](O)CC2(C)C)C(C)(C)C[C@H](O)C1=O [Synthetic product, astaxanthin] the “Fish flesh color exhibited” value ([1]; 6 months of cultivating) was “unnatural red color”, the “L* value (luminance)” value [1, 5] was 55.6 and the “a* value (chroma red)” value [1, 5] was 26.0. For the same compound, the “b* value (chroma yellow)” value [1, 5] was 26.2, the “a*/b*” value ([1]; milled thawed fish flesh, spectrometer, 6 months, average of 10 fish) was 0.99 and the “Fish flesh color exhibited” value ([2]; 12 months of cultivating) was “reddish orange color with a high level of chroma red”. For the same compound, the “L* value (luminance)” value [2, 6] was 50.0, the “a* value (chroma red)” value [2, 6] was 26.2 and the “a*/b*” value [2, 6] was 0.94. For the same compound, the “b* value (chroma yellow)” value [2, 6] was 27.9, the “Fish flesh color exhibited” value ([3]; 3 months of cultivating) was “reddish orange color close to a red color” and the “L* value (luminance)” value [3, 7] was 41.8. For the same compound, the “a* value (chroma red)” value [3, 7] was 9.1, the “a*/b*” value [3, 7] was 0.66 and the “b* value (chroma yellow)” value [3, 7] was 13.8. For the same compound, the “Fish flesh color exhibited” value ([4]; 3 months of cultivating) was “reddish orange color close to a red color”, the “L* value (luminance)” value [4, 8] was 50.8 and the “a* value (chroma red)” value [4, 8] was 23.7. For the same compound, the “a*/b*” value [4, 8] was 0.93 and the “b* value (chroma yellow)” value [4, 8] was 25.5.
